Tests used:
Type in all cases: in vivo
[1] = tested on: cattle ticks (Rhipicephalus microplus) strain Parkhurst, SP-resistant; test: Rhipicephalus (Boophilus) microplus dip test; conditions: 168 h, application rate 100 ppm, egg deposition after 7 days, read-out: activity (efficacy: infertile eggs)
Method: Rhipicephalus (Boophilus) microplus—Dip Test
Test animal: cattle ticks (Rhipicephalus microplus) strain Parkhurst, SP-resistant
Solvent: dimethyl sulfoxide
To produce a suitable preparation of active compound, 10 mg of active compound are dissolved in 0.5 mL solvent, and the concentrate is diluted with water to the desired concentration.
This compound solution is pipetted into tubes. 8-10 engorged, adult, female cattle ticks (Rhipicephalus microplus) are placed in perforated tubes. These tubes are immersed in the aqueous compound solution until the ticks are completely moistened. After the liquid has drained off, the ticks are transferred to a filter paper in a plastic tray and stored in a climate chamber.
After 7 days egg deposition of fertile eggs is monitored. Eggs where fertility is not visible are stored in a climate chamber till hatching after about 42 days. An efficacy of 100% means all eggs are infertile; 0% means all eggs are fertile.

[2] = tested on: fall armyworm larvae (Spodoptera frugiperda); test: Spodoptera frugiperda spray test; conditions: 168 h, application rate 100 g/ha, after 7 days, maize leaf sections
Procedure, shortened: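 Caterpillars are placed on sprayed, dried maize leaf sections. Sprays contain compound diluted in water with emulsifier at 1000 ppm; mortality in % is determined 7 days later.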

[3] = tested on: adult engorged female ticks (Rhipicephalus microplus); test: Rhipicephalus (Boophilus) microplus injection test; conditions: 168 h, application rate 4 μg/tick, egg deposition after 7 days, read-out: activity (efficacy: infertile eggs)
Procedure, shortened: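 Efficacy is scored from egg fertility, with 100% meaning every egg infertile and 0% every egg fertile. Five engorged females per test received 1 μL DMSO solution abdominally. Eggs of unclear fertility were kept until hatching, about 42 days.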

[4] = tested on: brown planthopper (Nilaparvata lugens); test: Nilaparvata lugens spray test; conditions: 96 h, after 4 days, rice plants; for mortality at 100 g/ha: application rate 100 g/ha; for mortality at 500 g/ha: application rate 500 g/ha
Procedure, shortened: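 Rice plants sprayed with compound diluted in water containing 1000 ppm emulsifier, then infested with brown planthopper. Mortality (%) scored after 4 days, 100% meaning all insects killed.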

[5] = tested on: adult cat fleas (Ctenocephalides felis); test: Ctenocephalides felis in-vitro contact test, adult cat flea; conditions: application rate 5 μg/cm^2 (=500 g/ha), after 48 hours, read-out: activity (efficacy: fleas dead or moribund)
Procedure, shortened: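 Acetone solutions of compound were coated onto inner walls of glass tubes (900 ppm giving 5 μg/cm^2) and dried; 5-10 adult C. felis were then held 48 h at room temperature. Efficacy = % fleas dead or moribund, judged by inability to escape a 45-50° C heating plate within 5 min.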

[6] = tested on: adult mosquitoes Anopheles funestus strain FUMOZ-R; test: Anopheles funestus test (ANPHFU surface treatment & contact assay); conditions: 24 hours after contact, read-out: efficacy (mortality); for mortality at 20 mg/m2: surface concentration 20 mg/m^2, exposure 30 minutes; for mortality at 4 mg/m2: surface concentration 4 mg/m^2, exposure 30 minutes
Procedure, shortened: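 Compound dissolved in acetone (2 mg/ml) with 2000 ppm rapeseed oil methyl ester and applied to a glazed tile. After acetone evaporation, adult FUMOZ-R mosquitoes were exposed to the dried surface for 30 min. Percent mortality was scored 24 h after contact.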

[7] = tested on: two spotted spidermite (Tetranychus urticae); test: Tetranychus urticae spray test OP-resistant; conditions: foliar, 144 h, application rate 100 g/ha, after 6 days, French bean leaf disks
Method: Tetranychus urticae—Spray Test OP-Resistant
To produce a suitable preparation of active compound, 1 part by weight of active compound is mixed with the stated amount of solvents and is diluted with water, containing an emulsifier concentration of 1000 ppm, to the desired concentration. Further test concentrations are prepared by dilution with emulsifier containing water.
French bean (Phaseolus vulgaris) leaf disks infected with all instars of the two spotted spidermite (Tetranychus urticae) are sprayed with a preparation of the active ingredient of the desired concentration.
After 6 days mortality in % is determined. 100% means all spider mites have been killed and 0% means none of the spider mites have been killed.

[8] = tested on: green peach aphid (Myzus persicae); test: Myzus persicae oral test; conditions: 120 h, read-out: activity (mortality)
Procedure, shortened: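 Compound was dissolved at 1 part by weight in 100 parts acetone, then diluted with water to test concentration and combined with IPL41 insect medium (33%+15% sugar). A mixed aphid population fed on this through a parafilm seal, and mortality (%) was scored after 5 days.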

[9] = tested on: adult mosquitoes Culex quinquefasciatus strain P00; test: Culex quinquefasciatus test (CULXFA surface treatment & contact assay); conditions: 24 hours after contact, read-out: efficacy (mortality); for mortality at 20 mg/m2: surface concentration 20 mg/m^2, exposure 30 minutes; for mortality at 4 mg/m2: surface concentration 4 mg/m^2, exposure 30 minutes
Method: Culex quinquefasciatus Test (CULXFA Surface Treatment & Contact Assay)
Solvent: Aceton+2000 ppm rapeseed oil methyl ester (RME)
In order to produce a sufficient, active ingredient containing solution it is necessary to solve the test compound in the solvent-mix (acetone at 2 mg/ml/RME 2 000 ppm). This solution is pipetted onto a glazed tile and after evaporation of the acetone, adult mosquitoes of the species Culex quinquefasciatus strain P00 are placed onto the dried surface. The exposure time is 30 minutes.
Mortality in percent (%) is determined 24 hours after contact of the insects to the treated surface. 100% mortality means that all tested insects are dead, whereas 0% means that no insect died.

C[C@H](NC(=O)c1cc(C(F)(F)F)cc(C(F)(F)F)c1)c1ncnn1-c1ccc(C(=O)N2CCOCC2)cn1 [Example I-2]
pest or weed control at 100 ppm [1]: 100% | mortality at 100 g/ha [2]: 100% | pest or weed control at 0.004 mg [3]: 100% | mortality at 100 g/ha [4]: 90% | mortality at 500 g/ha [4]: 100% | pest or weed control at 5 µg/cm2 [5]: 100% | mortality at 20 mg/m2 [6]: 80 to 100% | mortality at 100 g/ha [7]: 90% | mortality at 4 ppm [8]: 100%

CC1CN(C(=O)c2ccc(-n3ncnc3[C@H](C)NC(=O)c3cc(C(F)(F)F)cc(C(F)(F)F)c3)nc2)CC(C)O1 (stereo partly shown) [Example I-5]
pest or weed control at 100 ppm [1]: 100% | mortality at 100 g/ha [2]: 100% | pest or weed control at 0.004 mg [3]: 100% | mortality at 100 g/ha [4]: 90% | pest or weed control at 5 µg/cm2 [5]: 100% | mortality at 20 mg/m2 [6]: 80 to 100% | mortality at 100 g/ha [7]: 90% | mortality at 4 ppm [8]: 100%

Cc1nc([C@H](C)NC(=O)c2cc(C(F)(F)F)cc(C(F)(F)F)c2)n(-c2ccc(C(=O)N3CCOCC3)cn2)n1 [Example I-9, N-[(1S)-1-{3-methyl-1-[5-(morpholin-4-ylcarbonyl)pyridin-2-yl]-1H-1,2,4-triazol-5-yl}ethyl]-3,5-bis(trifluoromethyl)benzamide]
pest or weed control at 100 ppm [1]: 100% | mortality at 100 g/ha [2]: 100% | pest or weed control at 0.004 mg [3]: 100% | mortality at 100 g/ha [4]: 100% | pest or weed control at 5 µg/cm2 [5]: 100% | mortality at 20 mg/m2 [6]: 80 to 100% | mortality at 100 g/ha [7]: 100% | mortality at 4 ppm [8]: 100%

C[C@H](NC(=O)c1cc(C(F)(F)F)cc(C(F)(F)F)c1)c1ncnn1-c1ccc(C(=O)N2CCCC2)cn1 [Example I-11]
mortality at 100 g/ha [2]: 100% | pest or weed control at 0.004 mg [3]: 100% | pest or weed control at 5 µg/cm2 [5]: 100% | mortality at 100 g/ha [7]: 100% | mortality at 4 ppm [8]: 100%

C[C@@H]1CN(C(=O)c2ccc(-n3ncnc3[C@H](C)NC(=O)c3cc(C(F)(F)F)cc(C(F)(F)F)c3)nc2)C[C@H](C)O1 [Example I-50]
pest or weed control at 100 ppm [1]: 100% | mortality at 100 g/ha [2]: 100% | pest or weed control at 0.004 mg [3]: 100% | mortality at 100 g/ha [4]: 90% | pest or weed control at 5 µg/cm2 [5]: 100% | mortality at 20 mg/m2 [9]: 80 to 100% | mortality at 4 mg/m2 [6]: 80 to 100% | mortality at 20 mg/m2 [6]: 80 to 100% | mortality at 4 ppm [8]: 100%

C[C@H](NC(=O)c1cc(C(F)(F)F)cc(C(F)(F)F)c1)c1ncnn1-c1ccc(C(=O)N2CCS(=O)(=O)CC2)cn1 [Example I-75]
mortality at 100 g/ha [2]: 100% | mortality at 500 g/ha [4]: 100% | pest or weed control at 5 µg/cm2 [5]: 100% | mortality at 4 mg/m2 [9]: 80 to 100% | mortality at 20 mg/m2 [9]: 80 to 100% | mortality at 4 mg/m2 [6]: 80 to 100% | mortality at 20 mg/m2 [6]: 80 to 100% | mortality at 4 ppm [8]: 100%

Cc1nc([C@H](C)NC(=O)c2cc(C(F)(F)F)cc(C(F)(F)F)c2)n(-c2ccc(C(=O)N3CCS(=O)(=O)CC3)cn2)n1 [Example I-76]
mortality at 100 g/ha [2]: 100% | mortality at 500 g/ha [4]: 100% | pest or weed control at 5 µg/cm2 [5]: 100% | mortality at 4 mg/m2 [9]: 80 to 100% | mortality at 20 mg/m2 [9]: 80 to 100% | mortality at 4 mg/m2 [6]: 80 to 100% | mortality at 20 mg/m2 [6]: 80 to 100% | mortality at 4 ppm [8]: 100%

From patent US20230058623A1, “NOVEL HETEROARYL-TRIAZOLE COMPOUNDS AS PESTICIDES” (Bayer Aktiengesellschaft, priority 2019, published 2023)
